Test results as given in paper PMC8518382, “Identification of a Bromodomain‐like Region in 15‐Lipoxygenase‐1 Explains Its Nuclear Localization” (Angewandte Chemie (International Ed. in English), 2021).

What was measured:
[1] = molecular target: T1, 5-LOX (Homo sapiens, UniProt P09917); assay: ABP-based ELISA assay with A549 cell lysate, 5-LOX; format: biochemical
T1 construct: the endogenous LOXs were captured on an anti‐LOX antibody precoated 96‐well plate; endogenous in cells; host or cells: A549 cell lysate
T1 sequence (P09917 1-674): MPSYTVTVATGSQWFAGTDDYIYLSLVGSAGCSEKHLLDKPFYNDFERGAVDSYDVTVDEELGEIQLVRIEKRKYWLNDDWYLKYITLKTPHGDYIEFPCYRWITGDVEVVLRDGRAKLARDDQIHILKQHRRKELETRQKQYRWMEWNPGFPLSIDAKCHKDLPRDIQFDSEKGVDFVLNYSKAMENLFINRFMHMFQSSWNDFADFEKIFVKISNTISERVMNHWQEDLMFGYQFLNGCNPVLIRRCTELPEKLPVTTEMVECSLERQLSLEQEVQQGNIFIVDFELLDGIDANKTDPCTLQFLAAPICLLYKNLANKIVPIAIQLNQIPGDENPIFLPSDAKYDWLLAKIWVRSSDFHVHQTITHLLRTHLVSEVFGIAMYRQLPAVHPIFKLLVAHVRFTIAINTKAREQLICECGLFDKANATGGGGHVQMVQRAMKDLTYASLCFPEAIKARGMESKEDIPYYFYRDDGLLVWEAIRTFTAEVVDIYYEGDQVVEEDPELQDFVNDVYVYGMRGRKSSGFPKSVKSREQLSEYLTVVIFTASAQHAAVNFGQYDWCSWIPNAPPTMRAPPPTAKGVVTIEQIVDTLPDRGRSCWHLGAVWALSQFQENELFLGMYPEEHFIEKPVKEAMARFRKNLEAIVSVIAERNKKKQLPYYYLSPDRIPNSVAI
Description: (§1) A549 cell lysate was treated with a serial dilution of the respective inhibitor. Subsequently, samples were labeled by treatment with 1 μM of Labelox B for 1 min. […] Data are mean±s.d., n≥3 independent experiments. […]
(§2) 1.6. Immunoblotting Analysis […]
(§3) 1.7. ABPP-based LOX inhibitor specificity validation
(§4) A549 cells were lysed by RIPA buffer supplemented with 1x PIC. After sonication and centrifugation, the supernatant was collected, and the protein concentration was determined by a Pierce BCA Protein Assay Kit (Thermo Fisher Scientific, USA). The lysates were then diluted with PBS to 300 ng/µl and stored in -20°C. To label endogenous LOXs with Labelox B under the competition condition, 180 µl diluted lysates were incubated with 200 µl different LOX inhibitor solution (in PBS) with desired concentrations for 18 min to inhibit LOXs activity. Later, 20 µl of a 20 µM Labelox B (in PBS) was added and incubated shortly for 2 min, followed by adding 50 µl of a 0.5 M EDTA to stop the labeling reaction. The reaction mixture was 450 µl in total. Inhibitors and Labelox B were absent in positive and […]
(§5) negative control, respectively. To detect the competition labeling of Labelox B among different LOXs, a high-binding 96-well plate (Greiner, #M4561) was coated with 5-LOX (#ab169755, Abcam), 12-LOX […]
(§6) (1:500 dilution in PBS) for overnight at 4°C. After washing triply with 0.05%PBST, the plate was blocked with 2% (w/v) BSA in PBST. Subsequently, 100 µl of each reaction mixture was added to the LOX-antibody-coated wells. There are four LOX antibodies used for coating. Therefore, in total, 400 µl mixture is needed for each reaction. After one hour of incubation, LOXs were pulled down by antibodies accordingly. Next, 100 µl of HRP-conjugated streptavidin (1:2000 dilution in PBS, Thermo Fisher Scientific, USA) was added to each well to detect the D04 labeled LOXs among precipitated LOXs. After washing with PBST, 100 µl of mixed HRP substrate reagent (R&D Systems, Minneapolis, USA) was added, and the colorizing reaction was stopped by adding 100 µl of 1M sulfuric acid. The absorbance at […]

[2] = molecular target: T2, 12-LOX (Homo sapiens, UniProt P18054); assay: ABP-based ELISA assay with A549 cell lysate, 12-LOX; format: biochemical
T2 construct: the endogenous LOXs were captured on an anti‐LOX antibody precoated 96‐well plate; endogenous in cells; host or cells: A549 cell lysate
T2 sequence (P18054 1-663): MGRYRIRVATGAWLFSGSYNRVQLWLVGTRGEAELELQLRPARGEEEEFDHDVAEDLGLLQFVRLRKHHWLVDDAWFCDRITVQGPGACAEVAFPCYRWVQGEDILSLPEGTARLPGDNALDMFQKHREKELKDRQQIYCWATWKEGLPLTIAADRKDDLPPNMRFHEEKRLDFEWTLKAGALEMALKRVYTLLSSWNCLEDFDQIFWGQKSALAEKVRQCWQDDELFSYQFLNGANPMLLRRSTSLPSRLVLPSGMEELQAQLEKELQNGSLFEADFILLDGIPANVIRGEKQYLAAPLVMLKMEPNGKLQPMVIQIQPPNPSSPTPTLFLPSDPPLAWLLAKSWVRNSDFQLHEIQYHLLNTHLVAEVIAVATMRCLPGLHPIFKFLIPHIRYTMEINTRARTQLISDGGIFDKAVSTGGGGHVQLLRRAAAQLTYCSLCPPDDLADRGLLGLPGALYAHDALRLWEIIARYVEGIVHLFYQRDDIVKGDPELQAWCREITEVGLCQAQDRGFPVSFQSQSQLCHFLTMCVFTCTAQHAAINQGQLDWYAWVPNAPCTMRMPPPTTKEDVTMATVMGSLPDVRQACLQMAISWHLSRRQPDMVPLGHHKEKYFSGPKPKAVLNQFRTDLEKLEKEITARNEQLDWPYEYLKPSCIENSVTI
Description: as §1, §2, §3, §4, §5, §6

[3] = molecular target: T3, 15-LOX-1 (Homo sapiens, UniProt P16050); assay: ABP-based ELISA assay with A549 cell lysate, 15-LOX-1; format: biochemical; design: the endogenous LOXs were captured on an anti‐LOX antibody precoated 96‐well plate; endogenous in cells; host or cells: A549 cell lysate
T3 sequence (P16050 1-662): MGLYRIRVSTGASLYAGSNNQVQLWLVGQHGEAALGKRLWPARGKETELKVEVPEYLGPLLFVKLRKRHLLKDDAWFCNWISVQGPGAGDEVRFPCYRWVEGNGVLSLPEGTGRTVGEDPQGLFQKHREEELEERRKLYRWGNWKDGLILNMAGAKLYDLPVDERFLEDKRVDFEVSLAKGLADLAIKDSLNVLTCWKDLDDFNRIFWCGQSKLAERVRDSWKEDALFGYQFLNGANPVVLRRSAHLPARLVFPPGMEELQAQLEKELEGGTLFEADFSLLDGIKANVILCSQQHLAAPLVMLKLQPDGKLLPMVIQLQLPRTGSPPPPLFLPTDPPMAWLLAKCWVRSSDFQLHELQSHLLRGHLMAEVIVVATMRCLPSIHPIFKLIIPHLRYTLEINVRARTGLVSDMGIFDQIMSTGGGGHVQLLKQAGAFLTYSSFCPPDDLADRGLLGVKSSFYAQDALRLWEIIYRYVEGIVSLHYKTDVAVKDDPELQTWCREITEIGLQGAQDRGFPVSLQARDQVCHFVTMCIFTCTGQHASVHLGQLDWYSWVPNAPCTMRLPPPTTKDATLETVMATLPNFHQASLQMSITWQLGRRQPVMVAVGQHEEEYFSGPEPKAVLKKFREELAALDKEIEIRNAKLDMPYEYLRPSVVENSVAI
Description: as §1, §2, §3, §4, §5, §6

[4] = molecular target: H3K4Ac peptide; assay: ELISA; ELISA formatted binding study between histone H3 peptides and 15‐LOX‐1; concentrations up to 20 μM; Hill‐slopes equal 1; not told which partner was immobilised
[5] = molecular target: H3K56Ac peptide; assay: as above

Molecule	HillSlope Value [1]	HillSlope Value [2]	IC50 ([2]; 1 μM Labelox B) [µM]	Effect on ABP labeling [3]	Kd [4] [µM]	Kd [5] [µM]
CC(c1cc2ccccc2s1)N(O)C(N)=O (stereo not drawn) [Zileuton]	-0.48	-0.47	554	little or no effect		
recombinant 15‐LOX‐1 (from UniProt P16050 1-662) (enzyme)					> 20	1.65
